A word on the pKi: it is the Ki on a negative log10 scale, so that one unit is a factor of ten. A lower pKi goes with a large Ki. As usually defined, the kinact/KI is the second-order rate constant of inactivation. A word on the kinact: it is the rate constant of inactivation at saturating inhibitor.

For assay [1], the target named is KDR (VEGFR2) (Homo sapiens, UniProt P35968). In words: Time-dependent kinase inhibition kinetics (progress curve). Format: biochemical. On the procedure:
(§1) Typically, one measures the increase in inhibition of protein kinase activity in the presence of inhibitor over time. In one method, aliquots of a “pre-incubation” reaction mixture containing enzyme and inhibitor are assayed for activity (initial velocities) over time; increased inhibition or decreased initial velocities will be observed over time as the Michael adduct forms (Walsh, C, Enzyme Reaction Mechanisms, W.H. Freeman & Co., 1979, pp 86-94). In a second method, the time dependent loss of activity is measured as “progress curves” that measure and analyze product formed (e.g. ADP) versus time (Morrison & Walsh, Adv. Enzymol Relat Areas Mol. Biol. 1988, 61, 201-301). In either case, the time dependent inactivation can be dampened by the presence of a competing substrate, in this case ATP.
(§2) For covalent inhibitors, plots of log (activity) versus time provide apparent first-order rate constants (kobsd) of enzyme activity loss. If these assays are performed at varying concentrations of inhibitor, a series of first-order plots is obtained and kobsd obtained at each inhibitor concentration. To measure time-dependent inhibition using the “progress-curve method” (see references cited above and Kuzmic et al., Methods Enzymol 2004; 383: 366-81), ERK (or other kinase) is treated with varying amounts of the lactone inhibitor, and the formation of ADP is measured continuously by a coupled assay. […] Such molecules may be competitive inhibitors but should not show time-dependent inactivation.
(§3) Those of skill in the art will recognize that within the set of compounds useful in the methods of the invention, significant variability in specificity can be achieved, allowing one to identify optimal compounds for different applications. Inhibition progress curve analysis was performed using continuous, colorimetric, or fluorimetric assays. All experiments were done at 1 mM ATP, with the exception of KDR (at 5 mM ATP).
(§4) MEK1 assays were performed using pre-incubation experiments with radioactive [^32P]ATP and filter binding of product. All other kinases were analyzed using progress curve analysis from a continuous spectrophotometric assay.

Assay [2] concerns the target T1, Flt-3 (Homo sapiens, UniProt P36888).
T1 sequence (P36888 27-993): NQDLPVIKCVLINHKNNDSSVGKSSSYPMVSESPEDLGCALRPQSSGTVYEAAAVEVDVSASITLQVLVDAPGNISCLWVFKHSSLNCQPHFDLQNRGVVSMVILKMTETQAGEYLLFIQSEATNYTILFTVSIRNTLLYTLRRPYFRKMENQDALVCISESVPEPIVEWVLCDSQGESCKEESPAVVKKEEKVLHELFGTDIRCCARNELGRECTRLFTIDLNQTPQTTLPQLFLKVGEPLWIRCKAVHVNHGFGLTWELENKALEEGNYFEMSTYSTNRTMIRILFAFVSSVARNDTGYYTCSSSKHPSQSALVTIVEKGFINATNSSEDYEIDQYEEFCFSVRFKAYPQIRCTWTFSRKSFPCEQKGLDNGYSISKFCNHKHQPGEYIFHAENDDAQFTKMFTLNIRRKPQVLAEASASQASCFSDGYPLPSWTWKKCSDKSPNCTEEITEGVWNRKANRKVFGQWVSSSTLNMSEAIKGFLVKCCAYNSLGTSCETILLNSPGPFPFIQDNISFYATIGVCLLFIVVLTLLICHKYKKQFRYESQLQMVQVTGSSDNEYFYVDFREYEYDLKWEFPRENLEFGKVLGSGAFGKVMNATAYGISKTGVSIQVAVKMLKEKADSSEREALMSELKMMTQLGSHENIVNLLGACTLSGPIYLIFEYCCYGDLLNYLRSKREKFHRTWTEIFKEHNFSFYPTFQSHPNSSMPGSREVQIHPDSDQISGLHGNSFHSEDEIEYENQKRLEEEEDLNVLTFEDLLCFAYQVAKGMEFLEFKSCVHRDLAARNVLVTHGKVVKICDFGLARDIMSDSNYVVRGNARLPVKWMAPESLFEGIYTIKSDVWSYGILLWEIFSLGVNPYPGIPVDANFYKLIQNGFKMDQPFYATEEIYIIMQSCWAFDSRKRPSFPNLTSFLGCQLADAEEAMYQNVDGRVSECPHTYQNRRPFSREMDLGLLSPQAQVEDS
The assay is described as above. The class given is biochemical. On the procedure: as §1, §2, §3, §4

For assay [3], the target named is GSK3β (Homo sapiens, UniProt P49841). The description is as above. The class given is biochemical. On the procedure:
as §1, §2, §3, §4

Assay [4] concerns phosphorylated FLT3, MEK and ERK in MV-4-11 (FLT3(ITD)). The experiment in a line: Phosphorylation state of kinases in MV-4-11 cells. Format: cell-based. To be noted: MV-4-11, FLT3(ITD) mutation. Here is the method:
The downstream effects of inhibition of a particular kinase (e.g. MEK) can be established by measuring the phosphorylation state of several proteins that require that kinase for phosphorylation (e.g. ERK1). Cultured cells are treated with hypothemycin or other lactone analogs described herein, and Western blots of cell extracts are probed with antibodies specific for the unmodified and phosphorylated forms of the downstream targets. As an example, the effects of hypothemycin on MEK1/2 can be determined by measuring the level of ERK1/2 phosphorylation.

For assay [5], the system named is p70S6K(h). The experiment in a line: Kinase panel, residual activity. Format: biochemical, human. To be noted: 0.2 μM. Here is the method:
In this panel of 124 kinases, 18 of the 19 kinases identified as having an active site cysteine were inhibited to some extent by hypothemycin at a concentration of 0.2 μM and/or 2 μM.

The target of assay [6] is ERK2 (UniProt P28482). Format: biochemical. More on the design: Ki; other: ERK2; 1 mM ATP; kinact; T1/2; kinact/Ki; "the target Cys 172 residue. To be noted: ERK2. Here is the method:
In either case, the time dependent inactivation can be dampened by the presence of a competing substrate, in this case ATP.
For covalent inhibitors, plots of log (activity) versus time provide apparent first-order rate constants (kobsd) of enzyme activity loss. If these assays are performed at varying concentrations of inhibitor, a series of first-order plots is obtained and kobsd obtained at each inhibitor concentration. […] Such molecules may be competitive inhibitors but should not show time-dependent inactivation.
Inhibition progress curve analysis was performed using continuous, colorimetric, or fluorimetric assays. All experiments were done at 1 mM ATP, with the exception of KDR (at 5 mM ATP).
as §4

SMILES strings stand for the structures. pKi: −log10 of the molar value.

Sequence of GSK3β (P49841 whole entry): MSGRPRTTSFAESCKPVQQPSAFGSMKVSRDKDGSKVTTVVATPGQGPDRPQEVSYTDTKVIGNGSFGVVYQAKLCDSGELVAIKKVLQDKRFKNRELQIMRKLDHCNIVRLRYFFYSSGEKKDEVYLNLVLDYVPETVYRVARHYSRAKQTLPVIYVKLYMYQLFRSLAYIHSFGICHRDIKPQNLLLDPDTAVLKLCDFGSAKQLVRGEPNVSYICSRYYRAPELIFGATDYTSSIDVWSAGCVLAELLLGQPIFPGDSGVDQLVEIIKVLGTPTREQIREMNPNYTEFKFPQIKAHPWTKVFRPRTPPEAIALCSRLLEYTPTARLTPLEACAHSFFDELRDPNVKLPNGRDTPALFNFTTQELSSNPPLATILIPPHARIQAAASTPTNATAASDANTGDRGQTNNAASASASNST
Sequence of KDR (VEGFR2) (P35968 20-1356): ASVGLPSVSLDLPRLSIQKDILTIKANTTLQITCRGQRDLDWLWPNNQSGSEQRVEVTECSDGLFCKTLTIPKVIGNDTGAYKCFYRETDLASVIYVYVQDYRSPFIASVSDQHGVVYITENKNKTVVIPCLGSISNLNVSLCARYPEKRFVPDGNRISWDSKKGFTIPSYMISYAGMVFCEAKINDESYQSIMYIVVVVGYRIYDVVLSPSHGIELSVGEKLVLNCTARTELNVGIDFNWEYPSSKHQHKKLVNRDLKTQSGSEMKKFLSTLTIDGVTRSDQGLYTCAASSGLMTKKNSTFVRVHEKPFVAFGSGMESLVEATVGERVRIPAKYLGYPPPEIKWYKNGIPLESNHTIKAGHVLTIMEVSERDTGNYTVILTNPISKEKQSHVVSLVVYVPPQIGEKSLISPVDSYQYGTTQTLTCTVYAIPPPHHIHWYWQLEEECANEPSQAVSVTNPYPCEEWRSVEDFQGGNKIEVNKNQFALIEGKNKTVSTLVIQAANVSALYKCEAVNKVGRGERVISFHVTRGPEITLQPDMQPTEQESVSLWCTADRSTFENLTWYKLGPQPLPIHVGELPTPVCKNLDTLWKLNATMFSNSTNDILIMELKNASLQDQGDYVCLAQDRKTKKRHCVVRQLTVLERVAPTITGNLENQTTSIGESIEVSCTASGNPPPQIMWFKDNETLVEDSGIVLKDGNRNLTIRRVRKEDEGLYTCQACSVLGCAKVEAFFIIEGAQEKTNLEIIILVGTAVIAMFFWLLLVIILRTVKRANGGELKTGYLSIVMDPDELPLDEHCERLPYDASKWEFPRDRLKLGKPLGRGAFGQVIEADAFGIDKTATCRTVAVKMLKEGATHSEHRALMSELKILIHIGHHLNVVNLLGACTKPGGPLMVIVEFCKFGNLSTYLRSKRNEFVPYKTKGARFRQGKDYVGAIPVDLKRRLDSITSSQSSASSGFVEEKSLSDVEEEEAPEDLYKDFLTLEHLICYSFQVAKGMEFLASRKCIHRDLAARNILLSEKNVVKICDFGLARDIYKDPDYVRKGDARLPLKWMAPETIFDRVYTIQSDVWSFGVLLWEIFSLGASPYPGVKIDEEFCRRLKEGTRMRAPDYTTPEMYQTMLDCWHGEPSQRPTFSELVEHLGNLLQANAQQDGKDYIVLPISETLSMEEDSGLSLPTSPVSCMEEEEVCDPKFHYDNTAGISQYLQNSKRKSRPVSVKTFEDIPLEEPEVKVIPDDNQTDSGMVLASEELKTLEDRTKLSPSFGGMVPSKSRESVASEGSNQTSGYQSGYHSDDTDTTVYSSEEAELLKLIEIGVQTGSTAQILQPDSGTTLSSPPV

Consider `COc1cc(O)c2c(c1)[C@H]1O[C@@H]1C[C@H](O)[C@H](O)C(=O)/C=C\C[C@H](C)OC2=O` [Hypothemycin, hypothemycin], for which the pKi is 8.00 in assay [1] (KDR); 7.85 in assay [1] (KDR (VEGFR2), 5 mM ATP); 6.82 in assay [2] (1 mM ATP); 3.43 in assay [3]; 5.57 in assay [6] (1 mM ATP). Moreover, the figures for the kinact/KI in assay [1] (KDR), in assay [2] and in assay [3] (GSK3β) were 500000 M⁻¹ s⁻¹, 47000 M⁻¹ s⁻¹ and 5.4 M⁻¹ s⁻¹, respectively. For the same compound, the figures for the kinact/Ki in assay [1] (KDR (VEGFR2)) and in assay [6] were 500000 M⁻¹ s⁻¹ and 1900 M⁻¹ s⁻¹, respectively. In addition, the maximal inactivation rate constant (kinact) in assay [1] (KDR (VEGFR2), 5 mM ATP) amounted to 0.007 s⁻¹; in assay [2] (1 mM ATP) it was 0.007 s⁻¹; in assay [3] (GSK3β, 1 mM ATP), 0.002 s⁻¹; in assay [6] (1 mM ATP), 0.005 s⁻¹. Besides, the KDR activity inhibited in assay [1] (calculated for 0.1 μM for ~10 minutes) was over 98%. Also, the “phosphorylated forms of FLT3, MEK and ERK” value in assay [4] is reported as “loss of phosphorylated forms”. In assay [5], this compound gave a Percent residual activity of 94%.

The record behind these values is patent publication US20100004234A1, “SPECIFIC KINASE INHIBITORS” (Kosan Biosciences Incorporated, priority 2004, published 2010).
